# According to US12624050B2, “Three fused ring derivative-containing salt or crystal form and pharmaceutical composition thereof” (Shanghai Hansoh Biomedical Co., Ltd., priority 2019, dated 2026):
# Tests used:
# HCC1954 (H1047R) = test: Proliferation inhibition of PI3Kα mutant cancer cells, Cell Titer-Glo, HCC1954; format: cell-based; settings: Homo sapiens
# Protocol: (§1) The proliferation inhibitory effect of the compounds of the examples on the PI3Kα mutant cancer cell lines (HCC1954, HGC-27 and MKN1) was detected by Cell Titer-Glo method. Cell lines were cultured in RPMI 1640 medium (Gibco #22400089) containing 10% FBS (Gibco #10091148) and 1% P/S (Hyclone #SV30010) under the condition of 37° C. and 5% CO2. The cells were collected before the experiment, and the cell density was adjusted after cell counting. The cells were seeded in a white 96-well plate (Corning #3610) at a density of 1000 to 10000 cells/well, and incubated in an incubator at 37° C. and 5% CO2 overnight. The prepared compound solutions of different concentrations and the corresponding solvent controls were added to the plate. The plate was again incubated in an incubator at 37° C. and 5% CO2 for 48 to 96 hours. Then the cell plate and its contents were equilibrated to room temperature. 20 to 100 μL of Cell Titer-Glo solution (Promega #G7573) was added to each well, and the plate was shaken and mixed well, then incubated at room temperature for 5 to 30 minutes in the dark. The chemiluminescence was measured by a SynergyH1 microplate reader from BioTek.
# (§2) The percentage inhibition data of the compound-treated well was calculated from solvent control wells on the plate {% inhibition=100−(test compound value−solvent control value)×100}. IC50 values were calculated using GraphPad prism and using a four-parameter nonlinear logistic formula to fit the data of different concentrations and corresponding percent inhibition.
# MKN1 (E545K) = test: Proliferation inhibition of PI3Kα mutant cancer cells, Cell Titer-Glo, MKN1; format: cell-based; settings: Homo sapiens, MKN-1
# Protocol: as §1, §2
# HCC1954 cell = test: In vivo efficacy test, HCC1954 tumor-bearing nude mice; parameters: species or system BALB/c nude mice; settings: oral, 10 mg/kg, once/day, 21 days (Example 22: 19 days)
# Protocol: • a. A strain of HCC1954 cell was taken from the cell bank, recovered with RPMI-1640 medium (RPMI-1640+10% FBS+1% SP), plated in a cell culture flask (cell type, date, name of the experimenter and the like were labeled on the wall of the flask) and cultured in a CO2 incubator (the temperature was 37° C. and the CO2 concentration was 5% in the incubator). • b. Cells were passaged when they covered 80 to 90% of the bottom of the culture flask. After passage, the cells continued to be cultured in the CO2 incubator. This process was repeated until the number of cells was sufficient for the in vivo efficacy test. • c. The cultured cells were collected and counted with an automatic cell counter, and then resuspended with PBS and Matrigel Matrix according to the counting results to prepare a cell suspension (density 5×10^7/mL), which was placed in an ice box for use. 4.3.2 Cell Inoculation • a. The nude mice were labeled with disposable universal ear tags for rats and mice before inoculation. • b. During the inoculation, the cell suspension was mixed well. 0.1 to 1 mL of the cell suspension was drawn with a 1 mL syringe, air bubbles were removed, and then the syringe was placed on an ice pack for use. • c. The nude mouse was bound with the left hand. The position on the right side of the back close to the right shoulder of the nude mouse (inoculation site) was disinfected with 75% alcohol. Inoculation started after 30 seconds. • d. The test nude mice were successively inoculated (each mouse was inoculated with 0.1 mL of cell suspension). 4.3.3 Tumor Measurement, Grouping and Administration of Tumor-Bearing Mice • a. According to the tumor growth, the tumors was measured on 14 to 18 days after inoculation, and the tumor size was calculated. Calculation of tumor volume: tumor volume (mm^3)=length (mm)×width (mm)×width (mm)/2 • b. The tumor-bearing mice were grouped according to their body weight and tumor size by random grouping. • c. The test compounds were administered according to the grouping results (administration route: oral administration; administration dose: 10 mg/kg; administration volume: 10 mL/kg; administration frequency: once/day; administration cycle: 21 days; vehicle: 0.5% CMC/1% Tween 80). • d. Tumors were measured and weighed twice a week after the administration of test compounds began. • e. Animals were euthanized at the end of the experiment. • f. Data were processed by using softwares such as Excel. […] When the tumor regress, TGI (%)=[1−(average tumor volume of the treatment group at the end of the administration−average tumor volume of the treatment group at the beginning of the administration)/average tumor volume of the treatment group at the beginning of the administration]×100%.
# PI3Kγ = target: T1, PI3Kγ (Homo sapiens, UniProt P48736); test: ADP-Glo Lipid Kinase Assay, PI3Kγ kinase activity; format: biochemical; settings: for Selectivity of PI3Kα vs PI3Kγ: ratio of IC50 values
# T1 construct: purchased Thermofisher #PV4786
# Protocol: (§3) In this experiment, ADP-Glo Lipid Kinase Assay (Promega #V9102) from Promega was used. The lipid kinases PI3Kα/β/γ/δ catalyzed the ATP-to-ADP reaction in the presence of the substrate PIP2:3PS and ATP. The lipid kinase activity was characterized by measuring the ADP content in the reaction, and the half inhibition concentrations IC50 of the compounds on PI3Kα/β/γ/δ kinase activity were obtained.
# (§4) Kinase reactions were carried out in white 384-well plates (Perkin Elmer #6007299). 2 μL of the compound of various concentrations diluted with ddH2O containing 1% DMSO was added to each well, and 2 μL of ddH2O containing 1% DMSO was added to positive control wells. Then 2 μL of 0.1 to 2 nM PI3K kinase solution diluted with 5× kinase buffer (HEPES 250 mM, MgCl2 15 mM, NaCl 250 mM, BSA 0.05%) was added to each well, and 2 μL of 5× kinase buffer was added to the negative control wells. 4 μL of 50 μM substrate PIP2:3PS (Promega #V1701) prepared with 10× Dilution buffer and ddH2O was added to all wells. Finally, 2 μL of 50 to 100 μM ATP solution diluted with water was added to start the reaction. After the reaction was carried out at room temperature for 90 to 120 minutes, 10 µL of ADP-Glo Reagent (containing 10 mM MgCl2) was added to each well, and the reaction was carried out at room temperature for 60 minutes to eliminate excess adenosine triphosphate (ATP) in the reaction. Then 20 μL of Kinase Detection Reagent was added to each well. After the reaction was carried out for 20 minutes at room temperature in the dark, the chemiluminescence was measured by BioTek Synergy H1 microplate reader.
# as §2, with “positive” for “solvent”, “wells (DMSO control wells) and negative control wells (no kinase added)” for “wells”, “inhibition=100−[(test” for “inhibition=100−(test”, “value−negative control value)]/(positive control value-negative” for “value−solvent”
# HGC-27 (E542K) = test: Proliferation inhibition of PI3Kα mutant cancer cells, Cell Titer-Glo, HGC-27; format: cell-based; settings: Homo sapiens
# Protocol: as §1, §2
# PI3Kβ = target: T2, PI3Kβ (Homo sapiens, UniProt P42338); test: ADP-Glo Lipid Kinase Assay, PI3Kβ kinase activity; format: biochemical; settings: for Selectivity of PI3Kα vs PI3Kβ: ratio of IC50 values
# T2 construct: purchased Carna #11-102
# Protocol: as §3, §4
# as §2, with “positive” for “solvent”, “wells (DMSO control wells) and negative control wells (no kinase added)” for “wells”, “inhibition=100−[(test” for “inhibition=100−(test”, “value−negative control value)]/(positive control value-negative” for “value−solvent”
# PI3Kδ = target: T3, PI3Kδ (Homo sapiens, UniProt O00329); test: ADP-Glo Lipid Kinase Assay, PI3Kδ kinase activity; format: biochemical; settings: for Selectivity of PI3Kα vs PI3Kδ: ratio of IC50 values
# T3 construct: purchased Carna #11-103
# Protocol: as §3, §4
# as §2, with “positive” for “solvent”, “wells (DMSO control wells) and negative control wells (no kinase added)” for “wells”, “inhibition=100−[(test” for “inhibition=100−(test”, “value−negative control value)]/(positive control value-negative” for “value−solvent”
# T3 sequence (O00329 whole entry): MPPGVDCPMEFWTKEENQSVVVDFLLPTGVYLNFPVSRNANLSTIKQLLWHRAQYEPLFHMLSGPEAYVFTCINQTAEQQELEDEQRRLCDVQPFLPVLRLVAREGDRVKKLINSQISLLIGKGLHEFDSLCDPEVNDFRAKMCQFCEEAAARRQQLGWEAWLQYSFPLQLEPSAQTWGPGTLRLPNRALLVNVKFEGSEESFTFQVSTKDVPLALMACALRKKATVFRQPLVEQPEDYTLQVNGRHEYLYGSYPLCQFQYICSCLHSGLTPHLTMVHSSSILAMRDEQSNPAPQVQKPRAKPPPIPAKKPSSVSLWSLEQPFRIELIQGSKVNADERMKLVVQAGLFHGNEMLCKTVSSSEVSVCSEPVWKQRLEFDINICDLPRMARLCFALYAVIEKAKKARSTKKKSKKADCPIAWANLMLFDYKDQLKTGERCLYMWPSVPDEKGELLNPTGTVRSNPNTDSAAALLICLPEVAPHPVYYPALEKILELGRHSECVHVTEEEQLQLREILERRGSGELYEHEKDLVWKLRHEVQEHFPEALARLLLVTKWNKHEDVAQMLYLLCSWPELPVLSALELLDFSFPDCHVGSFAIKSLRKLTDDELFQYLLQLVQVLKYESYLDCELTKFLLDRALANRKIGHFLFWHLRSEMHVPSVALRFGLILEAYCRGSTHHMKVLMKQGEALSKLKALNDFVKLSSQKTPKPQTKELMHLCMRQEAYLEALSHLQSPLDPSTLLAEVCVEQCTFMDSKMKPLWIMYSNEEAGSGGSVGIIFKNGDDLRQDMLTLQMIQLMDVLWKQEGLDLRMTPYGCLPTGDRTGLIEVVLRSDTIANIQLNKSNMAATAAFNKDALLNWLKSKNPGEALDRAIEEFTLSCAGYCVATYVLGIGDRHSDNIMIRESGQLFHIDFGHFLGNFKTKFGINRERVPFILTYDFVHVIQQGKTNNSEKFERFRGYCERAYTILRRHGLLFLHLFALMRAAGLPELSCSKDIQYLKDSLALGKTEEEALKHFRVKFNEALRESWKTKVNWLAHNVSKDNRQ
# T3 sequence (P27986 whole entry partner): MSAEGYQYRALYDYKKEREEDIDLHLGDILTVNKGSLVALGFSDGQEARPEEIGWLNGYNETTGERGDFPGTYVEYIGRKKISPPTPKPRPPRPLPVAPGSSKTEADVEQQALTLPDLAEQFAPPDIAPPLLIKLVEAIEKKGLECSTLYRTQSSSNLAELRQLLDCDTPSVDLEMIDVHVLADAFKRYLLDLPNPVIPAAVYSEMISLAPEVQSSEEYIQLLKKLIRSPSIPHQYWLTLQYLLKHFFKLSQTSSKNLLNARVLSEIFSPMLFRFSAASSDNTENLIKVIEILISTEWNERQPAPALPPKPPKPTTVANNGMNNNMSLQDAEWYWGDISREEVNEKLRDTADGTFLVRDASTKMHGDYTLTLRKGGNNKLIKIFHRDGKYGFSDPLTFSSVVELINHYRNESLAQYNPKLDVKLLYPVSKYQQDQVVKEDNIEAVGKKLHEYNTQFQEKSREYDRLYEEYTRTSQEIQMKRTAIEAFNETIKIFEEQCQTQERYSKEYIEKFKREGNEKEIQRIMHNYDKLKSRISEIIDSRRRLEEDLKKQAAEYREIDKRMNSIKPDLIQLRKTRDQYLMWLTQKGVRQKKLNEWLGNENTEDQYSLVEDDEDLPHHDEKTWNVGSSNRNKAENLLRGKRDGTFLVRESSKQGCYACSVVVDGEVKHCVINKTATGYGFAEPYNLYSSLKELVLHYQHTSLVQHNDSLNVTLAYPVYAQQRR
# T1 sequence (P48736 whole entry): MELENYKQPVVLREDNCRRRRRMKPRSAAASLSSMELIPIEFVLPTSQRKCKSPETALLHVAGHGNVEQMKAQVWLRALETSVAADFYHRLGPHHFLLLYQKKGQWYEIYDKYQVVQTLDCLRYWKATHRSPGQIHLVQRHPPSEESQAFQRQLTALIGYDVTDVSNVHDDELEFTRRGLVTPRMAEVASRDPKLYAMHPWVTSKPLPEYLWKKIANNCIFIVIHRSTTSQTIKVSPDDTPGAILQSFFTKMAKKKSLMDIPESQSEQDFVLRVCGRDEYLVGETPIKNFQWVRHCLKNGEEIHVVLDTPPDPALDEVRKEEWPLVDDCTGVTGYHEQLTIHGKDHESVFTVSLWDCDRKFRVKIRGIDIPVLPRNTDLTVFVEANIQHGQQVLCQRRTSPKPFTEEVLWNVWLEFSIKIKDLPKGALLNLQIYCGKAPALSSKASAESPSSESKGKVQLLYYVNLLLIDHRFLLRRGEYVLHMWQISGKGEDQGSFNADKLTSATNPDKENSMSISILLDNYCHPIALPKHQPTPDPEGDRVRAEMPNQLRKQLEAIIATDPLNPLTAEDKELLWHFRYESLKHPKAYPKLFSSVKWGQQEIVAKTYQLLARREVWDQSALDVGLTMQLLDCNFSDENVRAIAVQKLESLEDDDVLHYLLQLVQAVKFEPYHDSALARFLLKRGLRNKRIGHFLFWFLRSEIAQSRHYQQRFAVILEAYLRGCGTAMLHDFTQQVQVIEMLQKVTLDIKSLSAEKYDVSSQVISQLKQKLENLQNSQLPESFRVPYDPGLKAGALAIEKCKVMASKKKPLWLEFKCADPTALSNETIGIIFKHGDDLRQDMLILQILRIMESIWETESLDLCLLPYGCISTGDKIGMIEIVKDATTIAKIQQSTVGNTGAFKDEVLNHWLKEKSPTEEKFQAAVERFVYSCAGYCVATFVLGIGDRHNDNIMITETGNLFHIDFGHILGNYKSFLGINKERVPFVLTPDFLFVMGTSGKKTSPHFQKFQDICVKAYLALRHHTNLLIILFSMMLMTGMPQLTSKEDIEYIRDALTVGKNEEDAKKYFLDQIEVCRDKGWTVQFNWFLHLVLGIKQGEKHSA
# T2 sequence (P42338 whole entry): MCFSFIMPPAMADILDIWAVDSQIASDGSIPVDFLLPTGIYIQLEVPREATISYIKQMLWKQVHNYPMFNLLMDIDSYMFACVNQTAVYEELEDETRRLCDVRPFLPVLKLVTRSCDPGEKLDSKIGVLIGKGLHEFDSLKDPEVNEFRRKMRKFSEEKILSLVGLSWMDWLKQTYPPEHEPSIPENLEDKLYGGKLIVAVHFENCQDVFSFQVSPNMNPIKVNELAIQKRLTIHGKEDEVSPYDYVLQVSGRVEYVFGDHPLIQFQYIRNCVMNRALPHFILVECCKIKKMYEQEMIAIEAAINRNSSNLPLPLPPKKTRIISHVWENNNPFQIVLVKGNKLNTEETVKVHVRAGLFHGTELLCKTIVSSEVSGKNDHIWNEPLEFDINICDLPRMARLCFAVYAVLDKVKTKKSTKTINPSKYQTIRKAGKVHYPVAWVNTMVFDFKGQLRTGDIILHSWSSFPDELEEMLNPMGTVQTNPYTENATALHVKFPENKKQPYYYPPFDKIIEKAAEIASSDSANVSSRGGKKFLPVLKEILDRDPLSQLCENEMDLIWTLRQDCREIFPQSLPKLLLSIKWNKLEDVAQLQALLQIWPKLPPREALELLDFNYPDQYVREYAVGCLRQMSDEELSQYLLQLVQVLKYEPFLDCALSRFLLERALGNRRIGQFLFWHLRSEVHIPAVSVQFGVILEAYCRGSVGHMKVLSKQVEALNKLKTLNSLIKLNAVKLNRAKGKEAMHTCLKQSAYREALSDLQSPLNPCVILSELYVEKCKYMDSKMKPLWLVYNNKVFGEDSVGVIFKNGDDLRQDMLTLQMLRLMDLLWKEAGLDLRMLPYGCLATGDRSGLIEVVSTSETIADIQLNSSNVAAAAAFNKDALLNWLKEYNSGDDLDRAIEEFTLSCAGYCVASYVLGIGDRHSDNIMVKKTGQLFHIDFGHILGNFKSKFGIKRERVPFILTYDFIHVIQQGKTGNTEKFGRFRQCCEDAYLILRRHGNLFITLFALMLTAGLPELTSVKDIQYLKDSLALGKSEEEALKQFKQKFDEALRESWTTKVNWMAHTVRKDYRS
# T2 sequence (P27986 whole entry partner): as the sequence (P27986 whole entry partner) above
Compound,IC50 (HCC1954 (H1047R)),IC50 (MKN1 (E545K)),Tumor growth inhibition rate (HCC1954 cell),Selectivity of PI3Kα vs PI3Kγ (PI3Kγ),IC50 (HGC-27 (E542K)),Selectivity of PI3Kα vs PI3Kβ (PI3Kβ),Selectivity of PI3Kα vs PI3Kδ (PI3Kδ),IC50 (PI3Kγ),IC50 (PI3Kβ),IC50 (PI3Kδ)
"C[C@H](Nc1ccc2c(c1)OCCn1cc(N3C(=O)SC[C@H]3C(F)F)nc1-2)C(N)=O [Example 22, (S)-2-((2-((R)-4-(difluoromethyl)-2-oxothiazolidin-3-yl)-5,6-dihydrobenzo[f]imidazo[1,2-d][1,4]oxazepin-9-yl)amino)propionamide]",0.021 µM,0.06 µM,132%,450,0.04 µM,840,245,,,
"C[C@H](Nc1ccc2c(c1)N(C)CCn1cc(N3C(=O)OC[C@H]3C(F)F)nc1-2)C(N)=O [Example 56, (S)-2-((2-((S)-4-(difluoromethyl)-2-oxooxazolidin-3-yl)-7-methyl-6,7-dihydro-5H-benzo[f]imidazo[1,2-d][1,4]diazoheptin-9-yl)amino)propionamide]",0.05 µM,0.104 µM,122%,180,0.11 µM,336,98,0.09 µM,0.168 µM,0.049 µM
"C[C@H](Nc1ccc2c(c1)SCCn1cc(N3C(=O)OC[C@H]3C(F)F)nc1-2)C(N)=O [Example 62, (S)-2-((2-((S)-4-(difluoromethyl)-2-oxooxazolidin-3-yl)-5,6-dihydrobenzo[f]imidazo[1,2-d][1,4]thiazepin-9-yl)amino)propionamide]",0.013 µM,0.025 µM,147%,500,0.022 µM,1020,280,0.05 µM,0.102 µM,0.028 µM
